Experimental data: article PMC3542272, “A Homogeneous, High-Throughput Assay for Phosphatidylinositol 5-Phosphate 4-Kinase with a Novel, Rapid Substrate Preparation” (PLoS ONE, 2013)
Values joined by “and” are separate entries in the source; they are usually repeats but may differ in a detail not shown here. Equal entries are not always repeated. “Also recorded” adds a separate entry of the source.

How the values were obtained:
PI5P4Kα [1] = target: T1, PI5P4Kα (Homo sapiens, UniProt P48426); assay: Miniaturized 1536-well luciferase-coupled bioluminescence (ADP-Glo) PI5P4Kα enzyme activity assay; format: biochemical; settings: for inhibitory activity against PI5P4Kα (in words): miniaturized assay / LOPAC1280 screen
T1 construct: made in house
T1 sequence (P48426 1-406): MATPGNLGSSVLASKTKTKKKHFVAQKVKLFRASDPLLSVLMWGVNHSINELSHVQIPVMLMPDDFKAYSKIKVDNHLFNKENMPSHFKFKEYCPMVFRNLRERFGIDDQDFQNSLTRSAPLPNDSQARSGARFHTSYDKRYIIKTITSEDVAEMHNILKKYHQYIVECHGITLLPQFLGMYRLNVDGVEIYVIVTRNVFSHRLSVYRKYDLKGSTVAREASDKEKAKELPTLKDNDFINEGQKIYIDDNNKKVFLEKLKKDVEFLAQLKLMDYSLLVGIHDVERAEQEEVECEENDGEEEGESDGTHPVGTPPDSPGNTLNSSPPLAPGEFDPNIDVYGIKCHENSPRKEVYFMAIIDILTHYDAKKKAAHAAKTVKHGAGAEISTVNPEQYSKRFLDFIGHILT
Procedure: PI5P4Kα (52.4 µL) was added to the lipid reagent (3 mL, described above) to form the enzyme-lipid mixture. First, 2 µL of the enzyme/lipid substrate reagent (2 µg/mL PI5P4Kα final concentration) were dispensed into a white solid-bottom 1536-well plate in columns 1–2, […] using a Flying Reagent Dispenser (FRD, Beckman Coulter, Fullerton, CA, USA). Into columns 3 and 4, 2 µL of a no-lipid and no-enzyme control were dispensed, respectively, where the lipid was replaced by DMSO or the enzyme was replaced by buffer (20 mM Hepes 7.4, 0.1% CHAPS) in the enzyme-lipid mixture. Then, 23 nL of the library compounds and control compounds were transferred by a 1536 pintool (Kalypsys Systems, San Diego, CA, USA) into wells 5–48 and 1–4, respectively. To initiate the reaction, 1 µL of the ATP solution (20 mM Hepes pH 7.4, 60 mM MgCl2, 0.015 mM ATP and 0.1% CHAPS) was added. The final concentration of DMSO in the reaction was 5%. The resulting mixture was incubated at room temperature in the dark for one hour, at which time 2 µL of ADP-Glo reagent 1 were added to stop the reaction and remove any remaining ATP. After a 45-minute incubation, 4 µL of the ADP-Glo reagent 2 were added and allowed to incubate for 30 minutes. The luminescence was then read with a ViewLux high-throughput CCD imager (Perkin Elmer, Waltham, MA, USA). A total of six plates were assayed: one DMSO plate for monitoring the background trends and five concentrations of the LOPAC library (152, 76, 15, 3 and 0.6 µM final assay concentrations, respectively). The top concentration in the assay was attained by two sequential pin transfers of the top concentration of the compound library.
Screening data were corrected and normalized, and concentration-response curves were derived using in-house algorithms. Overall assay performance, including trends in Z’ factor, % CV, and S/B, were recorded. Percent activity was computed after normalization using the median values of the uninhibited enzyme control (32 wells in column 1) and the no-enzyme, or 100% inhibited, control (32 wells, column 4). Additionally, the compound structures were evaluated, and the long chain compounds such as the C18 containing compounds from LOPAC^1280 that are likely to act by disrupting the lipid vesicles were eliminated. Selected actives were procured for re-testing in the primary screening assay and for use in the counter assays and substrate competition assay.

GST-PI5P4Kα = target: T2, GST-PI5P4Kα (Homo sapiens, UniProt P48426); assay: γ-32P-ATP incorporation assay and TLC (radiometric PI5P4K assay); format: biochemical
T2 construct: made in house
T2 sequence (P48426 1-406): T1 sequence (P48426 1-406)
Procedure: The PI5P4K assay was carried out as described in [10], [22], [23]. Briefly, the kinase reaction was carried out in a total of 50 µL of kinase buffer containing 20 µL of the resuspended lipids, 50 mM HEPES pH 7.4, 10 mM MgCl2, 10 µM non-radiolabeled ATP, 10 µCi [γ-^32P]-ATP with 0.1 µg of GST-PI5P4Kα for 7 minutes at room temperature. The reaction was terminated by adding 20 µL of 4 N HCl. Phosphoinositides were extracted by adding 70 µL of methanol/chloroform (1∶1, vol:vol) mix and subjected to TLC (thin-layer chromatography) separation using heat-activated 2% […] silica gel 60 plates (20 cm×20 cm, EMD Chemicals Inc., Billerica, MA, USA) and a 1-propanol/2 M acetic acid (65∶35, vol:vol) solvent system. The radiolabeled product, PI(4,5)P2, was quantified with a Phosphorimager (Molecular Dynamics, STORM840, GE Healthcare, Waukesha, WI, USA).

IGF1R = tested on: IGF1R; design: method as in PMID 11123895; settings: cited from earlier work
PI5P4Kα [2] = target: T1, PI5P4Kα; assay: Substrate (ATP) competition assay, miniaturized ADP-Glo PI5P4Kα assay; format: biochemical; settings: for mode of inhibition with respect to ATP: IC50 vs [ATP]/Km, seven ATP concentrations; for dependence of potency on ATP: varied ATP concentration
Description: The experiment was otherwise conducted as described above for the miniaturized ADP-Glo enzyme assay.

PI5P4Kα [3] = target: T1, PI5P4Kα; assay: Miniaturized 1536-well luciferase-coupled bioluminescence (ADP-Glo) PI5P4Kα enzyme activity assay; format: biochemical; settings: freshly plated stock of reacquired compound, 11-point titration
[4] = target: insulin-like growth factor 1 receptor (IGF1R); design: method as in PMID 11123895; settings: cited from earlier work
[5] = LOPAC1280 qHTS pilot screen, 5 µM ATP, 75 µM PI5P, 5% DMSO

With `CCCCCCCCCCCCCCCCCCOC[C@H](COP(=O)(O)OCC[N+](C)(C)C)OC` [1-O-Octadecyl-2-O-methyl-sn-glycero-3-phosphorylcholine] the “inhibitory activity against PI5P4Kα (in words)” value (PI5P4Kα [1]) was “identified as inhibitors”.

For `CC(C)(C)c1cc(C=C(C#N)C#N)cc(C(C)(C)C)c1O` [AG17], the “inhibition of PI5P4Kα (in words)” value (GST-PI5P4Kα; tested at 100 µM) was “not to significantly inhibit”.

With `N#CC(C#N)=Cc1ccc(O)c(O)c1` [AG18] the “inhibition of PI5P4Kα (in words)” value (GST-PI5P4Kα; tested at 100 µM) was “not to significantly inhibit”.

For `COc1cc(/C=C(\C#N)C(=O)c2ccc(O)c(O)c2)cc(I)c1O` [I-OMe-AG-538], the IC50 (PI5P4Kα [1]; [5]) is given as 2.5 µM and 2 µM, the “inhibition of IGF1R in a cell assay (in words)” value (IGF1R) is given as “inhibited IGF1R in a similar dose-dependent manner” and the “mode of inhibition with respect to ATP” value (PI5P4Kα [2]) is given as “competitive inhibition; also recorded: competitive with respect to ATP”. For the same molecule, the “mode of inhibition with respect to ATP” value (PI5P4Kα [2]; listed as I-OMe tyrphostin AG-538) was “ATP-competitive inhibitor”, the Ki (PI5P4Kα [2]; seven ATP concentrations 0.25xKm to 10xKm, Km of ATP 5 µM) was 0.5 µM and the IC50 (PI5P4Kα [3]) was 1 µM.

With `COc1c(C)c2c(c(O)c1C/C=C(\C)CCC(=O)O)C(=O)OC2` [MP, mycophenolate] the “inhibition of PI5P4Kα (in words)” value (GST-PI5P4Kα; tested at 100 µM) was “not to significantly inhibit”.

In the case of `CCCCCCCC/C=C\CCCCCCCC(=O)N[C@@H](CO)Cc1ccc(O)cc1` [OMDM-2, (R)-N-oleoyl Tyrosinol], the IC50 (PI5P4Kα [1]; weak inhibitors, ADP-Glo assay) is reported as about 30 µM and the “dependence of potency on ATP” value (PI5P4Kα [2]) is reported as “did not vary with ATP”.

With `CC(C)[C@H](CO)Nc1nc(Nc2ccc(C(=O)O)c(Cl)c2)c2ncn(C(C)C)c2n1` [PVB, purvalanol B] the “inhibition of PI5P4Kα (in words)” value (GST-PI5P4Kα; tested at 10 µM due to solubility limitations) was “not to significantly inhibit”.

In the case of `Cc1[nH]c(/C=C2\C(=O)Nc3ccccc32)c(C)c1CCC(=O)O` [SU6668], the “inhibition of PI5P4Kα (in words)” value (GST-PI5P4Kα; tested at 100 µM) is reported as “not to significantly inhibit”.

In the case of `N#CC(C#N)=Cc1cc(O)c(O)c(O)c1` [Tyrphostin AG-82], the IC50 (PI5P4Kα [1]; [5]) is reported as 93 µM, the “inhibitory activity against PI5P4Kα (in words)” value (PI5P4Kα [1]) is reported as “confirmed” and the inhibition at 100 µM (GST-PI5P4Kα; tested at 100 µM) is reported as 75%.

For `CCCCCCCC/C=C\CCCCCCCC(N)=O` [oleamide], the IC50 (PI5P4Kα [1]; weak inhibitors, ADP-Glo assay) was about 30 µM and the “dependence of potency on ATP” value (PI5P4Kα [2]) was “did not vary with ATP”.

`N#CC(C#N)=Cc1ccc(O)c(O)c1` [tyrphostin 23] showed an IC50 (PI5P4Kα [1]; [5]) of 45 µM.

For `N#C/C(=C\c1ccc(O)c(O)c1)C(N)=S` [tyrphostin 47], the IC50 (PI5P4Kα [1]; [5]) was 20 µM.

In the case of `N#CC(C#N)=C(N)/C(C#N)=C/c1cc(O)c(O)c(O)c1` [tyrphostin 51], the IC50 (PI5P4Kα [1]; [5]) is reported as 5 µM.

Molecule `N#C/C(=C\c1ccc(O)c(O)c1)C(=O)NCc1ccccc1` [tyrphostin AG 490] has an IC50 (PI5P4Kα [1]; [5]) of 89 µM.

Work on `N#C/C(=C\c1ccc(O)c(O)c1)C(=O)Nc1ccccc1` [tyrphostin AG 494] yielded an IC50 (PI5P4Kα [1]; [5]) of 89 µM.

In the case of `N#C/C(=C\c1ccc(O)c(O)c1)C(=O)NCCCNC(=O)/C(C#N)=C/c1ccc(O)c(O)c1` [tyrphostin AG 537], the IC50 (PI5P4Kα [1]; [5]) is reported as 32 µM.

In the case of `N#C/C(=C\c1ccc(O)c(O)c1)C(=O)c1ccc(O)c(O)c1` [tyrphostin AG 538], the IC50 (PI5P4Kα [1]; [5]) is listed as 14 µM, the “inhibition of IGF1R in a cell assay (in words)” value (IGF1R) is listed as “inhibited IGF1R in a similar dose-dependent manner” and the IC50 [4] is listed as 0.06 µM.

`N#C/C(=C\c1ccc(O)c(O)c1)C(=O)NCCCc1ccccc1` [tyrphostin AG 555] showed an IC50 (PI5P4Kα [1]; [5]) of 50 µM.

`N#C/C(=C\c1c[nH]c2ccccc12)C(=O)c1ccc(O)c(O)c1` [tyrphostin AG 808] gave an IC50 (PI5P4Kα [1]; [5]) of 18 µM.

In the case of `COc1cc2ncnc(Nc3cccc(Cl)c3)c2cc1OC` [tyrphostin AG 1478], the IC50 (PI5P4Kα [1]; [5]) is reported as 100 µM.
